Reference: patent US20260373248A1, “DEGRADABLE PEPTOIDS” (Medici Therapeutics, Inc., priority 2023, published 2026)
Starred links: 1 amine or outer side, 2 acyl side, 3 side chain; linkers in the order of their positions; H or OH if unused. Non-standard residues stand in square brackets, D forms with d. Residues, ends and D or L forms follow the SMILES beside them. *: point of attachment. Gly(N-(3-decanoyloxypropyl)) = CCCCCCCCCC(=O)OCCCNCC(=O)O; Gly(N-(CH2)3O-octanoyl) = CCCCCCCC(=O)OCCCNCC(=O)O; N(3-imidazol-1-ylpropyl)Gly = O=C(O)CNCCCn1ccnc1; Gly(N-3-morpholinopropyl) = O=C(O)CNCCCN1CCOCC1; X5 = CCCCC(CC)C(=O)OCCCCCCN(CC(=O)[*:2])[*:1]; X4 = CCCCCCCCCCCC(=O)OCCN(CC(=O)[*:2])[*:1]; N(2-ethylhexyl)Gly = CCCCC(CC)CNCC(=O)O; X6 = CCCCCCCC(=O)OCCN(CC(=O)[*:2])[*:1]; X1 = CCCCC(CC)CSSCCN(CC(=O)[*:2])[*:1]; X7 = CCCCCCCCCCSSCCN(CC(=O)[*:2])[*:1]; Gly(N-dodecyl) = CCCCCCCCCCCCNCC(=O)O; N(CH(CH2OH)2)Gly = O=C(O)CNC(CO)CO; N(octyl)Gly = CCCCCCCCNCC(=O)O; NDecylGly = CCCCCCCCCCNCC(=O)O; For = O=C*

What was measured:
firefly luciferase = test: In vivo firefly luciferase expression after intravenous injection of fLuc mRNA delivery vehicles (IVIS imaging); set-up: species or system female Balb/c mice; details: for Total Flux: mice, 2.5 ug fLuc mRNA intravenously, 6 hours post-injection; for Total Flux (luciferase expression): fLuc mRNA, intravenous, Balb/c mice
Experimental: (§1) All animal studies were conducted under accreditation by the California State Department of Public Health and under supervision of IACUC and Veterinarian Supervision. For imaging studies, female Balb/c mice (6-8 weeks old) were obtained and acclimatized for a minimum of 3 days prior to experiments. The animals were maintained on a 12 hour light cycle in a temperature and humidity controlled room. A daily health check was performed as well as food and water check. For dosing, mice were injected with 2.5 ug fLuc mRNA-containing Nutshells intravenously in 100 μL total injection value. At 6 hours post-injection, mice were anesthetized with isoflurane, injected IP with 30 mg/mL D-luciferin at a dose of 10 μL per gram bodyweight intraperitoneally. Imaging was done 10 minutes post D-luciferin injection using an IVIS Spectrum Imaging System (Caliper Life Sciences). Immediately after in vivo imaging, mice were terminally bled by cardiac puncture and euthanized. The organs of interest were harvested, placed in black 24-well plates, and imaged. Living Image software (Perkin Elmer) was used to quantify the total photon flux in regions of interest.
Luciferase expression in these formulations was also determined as described in Example 4.

mRNA = mRNA encapsulation (modified Quant-iT RiboGreen assay); assay type: physicochemical; details: for mean percent encapsulation of RNA: RiboGreen, without vs with Triton X-100; for % Encapsulation: mRNA
Experimental: The mRNA concentration and the percentage of encapsulated mRNA were determined using fluorescent-based Quant-iT RiboGreen RNA Reagent Kit (Life Technologies, Waltham, MA) as described previously. To determine the mRNA concentration, PNPs was incubated with […] for 10 min to release entrapped mRNA, followed by addition of RiboGreen RNA reagent. The fluorescence intensity of mRNA-RiboGreen reagent complex (excitation at 485 nm and emission at 530 nm) was detected using a microplate reader. The ratio of fluorescence without and with Triton X-100 were used to calculate the percentage of encapsulated mRNA.
(§2) Degradable peptoids described herein were formulated as various formulations described in Table 3 according to the procedure described in Example 2. Particle size was characterized as described in Example 2, and […] encapsulation of mRNA was determined as described in Example 3.

[1] = Delivery vehicle size and polydispersity by dynamic light scattering; assay type: physicochemical
Experimental: Delivery vehicles were formulated by rapid microfluidic mixing using a high throughput microfluidic system. Briefly, ethanol solutions containing peptoid, DSPC, Cholesterol, DMG-PEG2000 at weight ratio of 20:1.79:7.16:1.84, were mixed with 10 mM sodium citrate buffer (pH 5.0) containing synthesized mRNA at a ratio of 1:3 by volume. Peptoid based LNPs were subsequently dialyzed against 1-2 liters of tris-sucrose buffer (TS7, pH 7.4) overnight at 4 °C. Delivery vehicle size and polydispersity (PDI) was measured by dynamic light scattering in PBS.
as §2

luciferase = test: Luciferase expression after local (intramuscular or subcutaneous) administration of mRNA; assay type: in vivo; details: mRNA 0.01 mpk, 6 hours; for IM Flux: intramuscular; for SC Flux: subcutaneous
Experimental: as §1
Aminolipidated peptoids were also effective for local administration of mRNA through subcutaneous (S.C.) or intramuscular (I.M.) routes of administration. For these examples, mRNA was administered at a dose of 0.1 mpk for intratomoral, or 0.01 mpk for subcutaneous and intramuscular administration, and the resulting bioluminescence quantified after 6 hours according to a similar procedure as described in Example 4.

[2] = DLS in PBS, peptoid:DSPC:Cholesterol:DMG-PEG2000 weight ratio 20:1.79:7.16:1.84, mRNA

| SMILES | mean percent encapsulation of RNA (mRNA) | PDI [1, 2] | Particle Size [1, 2] | Total Flux (firefly luciferase) | IM Flux (luciferase) | SC Flux (luciferase) | also measured |
| --- | --- | --- | --- | --- | --- | --- | --- |
| CCCCCCCC(=O)OCCN(CC(=O)N(CC(=O)N(CC(=O)N(CCOC(=O)CCCCCCC)CC(=O)N(CC(N)=O)CC(CC)CCCC)CC(CC)CCCC)CC(CC)CCCC)C(=O)CN(CC(CC)CCCC)C(=O)CNC(CO)CO (stereo not shown) [Compound 1] (H-[N(CH(CH2OH)2)Gly][N(2-ethylhexyl)Gly][X6][N(2-ethylhexyl)Gly][N(2-ethylhexyl)Gly][X6][N(2-ethylhexyl)Gly]-NH2) | 93.0% | 0.094 | 79.7 nm | 7.71E+08 p/s |  |  |  |
| CCCCCCCCCCCC(=O)OCCN(CC(=O)N(CC(=O)N(CC(=O)N(CCOC(=O)CCCCCCCCCCC)CC(=O)N(CC(N)=O)CC(CC)CCCC)CC(CC)CCCC)CC(CC)CCCC)C(=O)CN(CC(CC)CCCC)C(=O)CNC(CO)CO (stereo not shown) [Compound 3] (H-[N(CH(CH2OH)2)Gly][N(2-ethylhexyl)Gly][X4][N(2-ethylhexyl)Gly][N(2-ethylhexyl)Gly][X4][N(2-ethylhexyl)Gly]-NH2) | 63.8% | 0.076 | 74.6 nm | 6.66E+08 p/s |  |  |  |
| CCCCCCCCCCCCN(CC(=O)N(CC(N)=O)CC(CC)CCCC)C(=O)CN(CC(CC)CCCC)C(=O)CN(CC(CC)CCCC)C(=O)CN(CCCOC(=O)CCCCCCC)C(=O)CN(CC(CC)CCCC)C(=O)CNC(CO)CO (stereo not shown) [Compound 14] (H-[N(CH(CH2OH)2)Gly][N(2-ethylhexyl)Gly][Gly(N-(CH2)3O-octanoyl)][N(2-ethylhexyl)Gly][N(2-ethylhexyl)Gly][Gly(N-dodecyl)][N(2-ethylhexyl)Gly]-NH2) | 90.3% | 0.090 | 72.1 nm | 4.76E+08 p/s |  |  |  |
| CCCCCCCCCCSSCCN(CC(=O)N(CC(N)=O)CC(CC)CCCC)C(=O)CN(CC(CC)CCCC)C(=O)CN(CC(CC)CCCC)C(=O)CN(CCCCCCCCCC)C(=O)CN(CC(CC)CCCC)C(=O)CNC(CO)CO (stereo not shown) [Compound 36] (H-[N(CH(CH2OH)2)Gly][N(2-ethylhexyl)Gly][NDecylGly][N(2-ethylhexyl)Gly][N(2-ethylhexyl)Gly][X7][N(2-ethylhexyl)Gly]-NH2) |  |  |  | 3.51E+09 p/s |  |  |  |
| CCCCCCCCN(CC(=O)N(CCCOC(=O)CCCCCCC)CC(=O)N(CCSSCC(CC)CCCC)CC(=O)N(CCCCCCCC)CC(=O)N(CCCOC(=O)CCCCCCC)CC(=O)N(CCSSCC(CC)CCCC)CC(N)=O)C(=O)CNC(CO)CO (stereo not shown) [Compound 127] (H-[N(CH(CH2OH)2)Gly][N(octyl)Gly][Gly(N-(CH2)3O-octanoyl)][X1][N(octyl)Gly][Gly(N-(CH2)3O-octanoyl)][X1]-NH2) | 84.2% | 0.093 | 84.1 nm | 6.54E+09 p/s | 3.36E+08 p/s | 1.92E+08 p/s |  |
| CCCCCCCC(=O)OCCCN(CC(=O)N(CCCOC(=O)CCCCCCC)CC(=O)N(CCSSCC(CC)CCCC)CC(=O)N(CCCOC(=O)CCCCCCC)CC(=O)N(CCCOC(=O)CCCCCCC)CC(=O)N(CCSSCC(CC)CCCC)CC(N)=O)C(=O)CNC(CO)CO (stereo not shown) [Compound 128] (H-[N(CH(CH2OH)2)Gly][Gly(N-(CH2)3O-octanoyl)][Gly(N-(CH2)3O-octanoyl)][X1][Gly(N-(CH2)3O-octanoyl)][Gly(N-(CH2)3O-octanoyl)][X1]-NH2) | 89.5% | 0.098 | 62.1 nm | 4.01E+09 p/s | 4.20E+08 p/s | 6.68E+08 p/s | Total Flux (luciferase expression) (firefly luciferase; formulation recipe D22): 4.01E+09 p/s; Total Flux (luciferase expression) (firefly luciferase; formulation recipe R3): 5.39E+08 p/s; Total Flux (luciferase expression) (firefly luciferase; formulation recipe R4): 5.47E+08 p/s; Total Flux (luciferase expression) (firefly luciferase; formulation recipe R7): 1.09E+09 p/s; Total Flux (luciferase expression) (firefly luciferase; formulation recipe R8): 5.73E+08 p/s; % Encapsulation (mRNA; formulation recipe D22): 89.5%; % Encapsulation (mRNA; formulation recipe R3): 89.5%; % Encapsulation (mRNA; formulation recipe R4): 87.7%; % Encapsulation (mRNA; formulation recipe R7): 92.5%; % Encapsulation (mRNA; formulation recipe R8): 94.4%; Particle Size ([1]; formulation recipe D22): 62.1 nm; Particle Size ([1]; formulation recipe R3): 77.5 nm; Particle Size ([1]; formulation recipe R4): 73.6 nm; Particle Size ([1]; formulation recipe R7): 82.7 nm; Particle Size ([1]; formulation recipe R8): 78.9 nm |
| CCCCCCCCCC(=O)OCCCN(CC(=O)N(CCSSCC(CC)CCCC)CC(N)=O)C(=O)CN(CCCCCCCC)C(=O)CN(CCSSCC(CC)CCCC)C(=O)CN(CCCOC(=O)CCCCCCCCC)C(=O)CN(CCCCCCCC)C(=O)CNC(CO)CO (stereo not shown) [Compound 129] (H-[N(CH(CH2OH)2)Gly][N(octyl)Gly][Gly(N-(3-decanoyloxypropyl))][X1][N(octyl)Gly][Gly(N-(3-decanoyloxypropyl))][X1]-NH2) | 89.2% | 0.101 | 61.2 nm | 1.06E+09 p/s | 2.00E+08 p/s | 3.41E+08 p/s |  |

The next lines start with results.

| mean percent encapsulation of RNA (mRNA) | PDI [1, 2] | Particle Size [1, 2] | SMILES | Total Flux (firefly luciferase) | IM Flux (luciferase) | SC Flux (luciferase) | also measured |
| --- | --- | --- | --- | --- | --- | --- | --- |
| 91.4% | 0.091 | 72.9 nm | CCCCCCCCCCCCN(CC(=O)N(CC(N)=O)CC(CC)CCCC)C(=O)CN(CCCCCCCC)C(=O)CN(CC(CC)CCCC)C(=O)CN(CCCCCCOC(=O)C(CC)CCCC)C(=O)CN(CCCCCCCC)C(=O)CNC(CO)CO (stereo not shown) [Compound 31] (H-[N(CH(CH2OH)2)Gly][N(octyl)Gly][X5][N(2-ethylhexyl)Gly][N(octyl)Gly][Gly(N-dodecyl)][N(2-ethylhexyl)Gly]-NH2) | 1.11E+09 p/s |  |  |  |
| 72.3% | 0.148 | 105.5 nm | CCCCCCCCCC(=O)OCCCN(CC(=O)N(CC(N)=O)CC(CC)CCCC)C(=O)CN(CCCCCCCC)C(=O)CN(CC(CC)CCCC)C(=O)CN(CCCOC(=O)CCCCCCCCC)C(=O)CN(CCCCCCCC)C(=O)CNCCCn1ccnc1 (stereo not shown) [Compound 111] (H-[N(3-imidazol-1-ylpropyl)Gly][N(octyl)Gly][Gly(N-(3-decanoyloxypropyl))][N(2-ethylhexyl)Gly][N(octyl)Gly][Gly(N-(3-decanoyloxypropyl))][N(2-ethylhexyl)Gly]-NH2) | 3.16E+08 p/s | 4.89E+07 p/s | 6.25E+07 p/s |  |
| 72.1% | 0.166 | 82.9 nm | CCCCCCCCCC(=O)OCCCN(C=O)CC(=O)N(CC(=O)N(CCCOC(=O)CCCCCCCCC)CC(=O)N(CCCN1CCOCC1)CC(=O)N(CCCOC(=O)CCCCCCCCC)CC(=O)N(CC(=O)N(CCCOC(=O)CCCCCCCCC)CC(N)=O)CC(CC)CCCC)CC(CC)CCCC (stereo not shown) [Compound 121] (For-[Gly(N-(3-decanoyloxypropyl))][N(2-ethylhexyl)Gly][Gly(N-(3-decanoyloxypropyl))][Gly(N-3-morpholinopropyl)][Gly(N-(3-decanoyloxypropyl))][N(2-ethylhexyl)Gly][Gly(N-(3-decanoyloxypropyl))]-NH2) |  | 4.54E+07 p/s | 5.20E+07 p/s |  |
| 93.5% | 0.118 | 85.2 nm | CCCCCCCC(=O)OCCCN(CC(=O)N(CCc1ccccc1)CC(=O)N(CC(=O)N(CCCN1CCOCC1)CC(=O)N(CC(=O)N(CCc1ccccc1)CC(=O)N(CCCOC(=O)CCCCCCC)CC(=O)N(CC(N)=O)CC(CC)CCCC)CC(CC)CCCC)CC(CC)CCCC)C(=O)CN(C=O)CC(CC)CCCC (stereo not shown) [Compound 124] | 6.20E+08 p/s | 4.35E+07 p/s | 4.34E+07 p/s |  |
